The values below come from patent publication US20050266420A1, “Multigene predictors of response to chemotherapy” (Board of Regents, The University of Texas System, priority 2004, published 2005).

Experiment [1] has as its system ZR75.1 breast cancer cells. Description: ATP cell viability assay (CellTiter-Glo) after siRNA transfection. Conditions: 48 h drug exposure; for pIC50: Homo sapiens, ZR-75-1, 48 h, read-out: IC50 concentration of paclitaxel; for Effect of Tau down-regulation on sensitivity to the drug: ZR75.1 cells, Tau siRNA. The format is cell-based, human. An excerpt: Small interfering RNA studies. Two siRNA oligonucleotides directed against microtubule associated protein Tau (genbank accession number NM_016835.1) were ordered from Qiagen. Breast cancer cell lines were screened for Tau protein expression by Western blot analysis using a monoclonal anti-Tau antibody (#13-1400: clone T14, Zymed, CA). ZR75.1 cells were selected for siRNA studies and were transfected with a control siRNA (directed against lamin) or 2 distinct anti-Tau siRNA (5′-[…]-3′ (SEQ ID NO:194) and 5′-[…]-3′) (SEQ ID NO:195) constructs. Five hundred nanograms of siRNA was transfected using 1.5 μl RNAiFect (Qiagen) onto 1-3×10^4 cells in 96-well plates or 5 μg of siRNA was transfected using 15 μl RNAiFect (Qiagen) onto 1.5-4×10^5 cells in 6-well plates following the manufactures instructions.
In vitro apoptosis and cell growth assays. Twenty-four hours after siRNA transfection, the medium was changed and cells were treated with various concentrations of paclitaxel and epirubicin. Proliferation rates were determined with CellTiter-Glo® Luminescent Cell Viability Assay, (Promega) after 48 hours of drug exposure according to the manufacturer's instructions. Chemosensitivity was determined from three separate experiments. Growth curves were generated with GraphPad Prism 4.01 (GraphPad Software, San Diego, Calif.). The effect of Tau expression on drug uptake was assayed using a fluorescent-conjugated paclitaxel (Oregon Green 488 paclitaxel, Molecular probes, Eugene, Oreg.) or spontaneously fluorescent epirubicin (Kimichi-Sarfaty et al., 2002; Harris et al., 2003). Forty-eight hours after siRNA transfection, 3×10^5 cells were trypsinized and resuspended in 1 ml of regular medium containing 1 μM of fluorescent paclitaxel or 16 μM of epirubicin and incubated at 37° C. for 20 to 80 min. The pellet was resuspended in 400 μl of phosphate-buffered saline before FACS analysis (Kimichi-Sarfaty et al., 2002) using CellQuest software (BD Biosciences, San Jose, Calif.). Data were recorded by the FACScan as arbitrary units. The amount of fluorescence per cell (arbitrary fluorescence units) was taken as the measure of drug uptake. […] Fluorescence paclitaxel uptake was also observed using an inverted fluorescent microscope.
Down regulation of Tau expression in breast cancer cells increases sensitivity to paclitaxel in vitro. […] The inventors assessed Tau protein expression in breast cancer cell lines with Western blot using an anti-Tau monoclonal antibody that recognizes Tau irrespectively of phosphorylation status. […] Twenty-four hours after siRNA transfection, cells were exposed to various concentrations of paclitaxel or epirubicin and cell viability was assessed after 48 h of drug exposure using an ATP cell viability assay. […]

Another experiment has as its system Bovine brain tubulin. Description: Tubulin polymerization assay (OD340). The format is biochemical. Conditions: tubulin 20 μM, 37° C.; 20 μM paclitaxel or 15 μM Tau. The protocol:
(§1) Tubulin polymerization assays. Bovine brain tubulin (2 mg/ml) polymerization assays were performed in 100-μl volumes at 37° C. using the Tubulin Polymerization Assay Kit (Cytoskeleton, Inc., Denver, Colo.) and following the manufacturer recommendations. Purified Tau protein was purchased from Cytoskeleton (ref #TA01). Fluorescent Bodipy-paclitaxel was purchased from Molecular probes (Bodipy 564/570, Molecular probes, Eugene, Oreg.). OD340 was measured every 30 seconds for 30-60 min. The plots show the change in turbidity after correcting the data for the baseline absorbance.
Microtubules are formed in vitro by non-covalent polymerization of tubulin dimers (Desai et al., 1997; Hong et al., 1998). Microtubule associated proteins, GTP and paclitaxel increase microtubule polymerization rates which can be measured by observing an increase in absorbance at 340 nm (Lu and Wood, 1993; Rao et al., 1999). The inventors hypothesized that Tau may reduce pharmacological tubulin polymerization induced by paclitaxel. The inventors performed a kinetic spectrophotometric tubulin polymerization assay in which Tau and paclitaxel were added together to the tubulin mixture. […] Next, tubulin was pre-incubated with Tau before adding paclitaxel which approximates a more physiological sequence of drug exposure. […]

For another experiment, the system named is tubulin. Description: Competition for fluorescent bodipy-paclitaxel binding to tubulin. Also noted: species or system bovine. Conditions: 30 min pre-incubation; Tau 15 μM or unlabelled paclitaxel 20 μM; fluorescent paclitaxel 5 μM. How it is done: as §1
To examine if paclitaxel binding to tubulin is affected by Tau expression, the inventors used fluorescent bodipy-paclitaxel. When fluorescent paclitaxel binds to microtubules it results in enhanced fluorescence. The inventors used this characteristic to assess the competition between Tau and paclitaxel in vitro. Fluorescent paclitaxel (5 μM) was added to a tubulin solution after 30 minutes pre-incubation with Tau (15 μM) or regular (non-fluorescent) paclitaxel (20 μM), or reaction buffer alone and fluorescence was measured 30 minutes later. […] In the control wells, the addition of fluorescent paclitaxel induced polymerization and after 30 minutes, fluorescence emission was high.

The test system of another experiment is ZR75.1 cells. Briefly: Fluorescent drug uptake by FACS in siRNA-transfected cells. To be noted: 16 μM epirubicin, versus lamin knocked-down cells. Type of experiment: cell-based, human. The protocol: In vitro apoptosis and cell growth assays. Twenty-four hours after siRNA transfection, the medium was changed and cells were treated with various concentrations of paclitaxel and epirubicin. Proliferation rates were determined with CellTiter-Glo® Luminescent Cell Viability Assay, (Promega) after 48 hours of drug exposure according to the manufacturer's instructions. Chemosensitivity was determined from three separate experiments. Growth curves were generated with GraphPad Prism 4.01 (GraphPad Software, San Diego, Calif.). […] Data were recorded by the FACScan as arbitrary units. The amount of fluorescence per cell (arbitrary fluorescence units) was taken as the measure of drug uptake. […] Fluorescence paclitaxel uptake was also observed using an inverted fluorescent microscope.
Tau protein reduces paclitaxel binding to tubulin and interferes with the paclitaxel induced stabilization in vitro. […] To estimate paclitaxel binding to tubulin in the presence or absence of Tau protein, the uptake of fluorescent paclitaxel in Tau siRNA-treated (Tau knock down) cells and lamin siRNA-treated control cells were measured. Forty-four hours after siRNA transfection, cells were exposed to 1 μM Oregon green-paclitaxel for 20 to 80 min and then analyzed by FACS. The amount of fluorescent paclitaxel in the cells can be assessed by plotting fluorescence intensity in the X-axis and cell count on the Y-axis. […]

Molecules are shown by their SMILES. pIC50: −log10 of the molar value. Like-named read-outs stand apart in the source and are kept apart here.

As to `CC(=O)O[C@H]1C(=O)[C@@]2(C)[C@H]([C@H](OC(=O)c3ccccc3)[C@]3(O)C[C@H](OC(=O)[C@H](O)[C@@H](NC(=O)c4ccccc4)c4ccccc4)C(C)=C1C3(C)C)[C@]1(OC(C)=O)CO[C@@H]1C[C@@H]2O` [paclitaxel], the pIC50 in experiment [1] (ZR75.1 cells with Tau siRNA knock down) is 7.00; in experiment [1] (ZR75.1 control cells (lamin siRNA or no siRNA)), less than 5.00. In addition, the “Effect of Tau down-regulation on sensitivity to the drug” value in experiment [1] is “significantly increased the sensitivity”. The Tubulin polymerization result in the experiment with Bovine brain tubulin is on record as “induced tubulin polymerization”. The “Competition with fluorescent paclitaxel for binding to microtubules” value with tubulin is “very high”.

Take `COc1cccc2c1C(=O)c1c(O)c3c(c(O)c1C2=O)C[C@@](O)(C(=O)CO)C[C@@H]3O[C@H]1C[C@H](N)[C@@H](O)[C@H](C)O1` [epirubicin]: the “Effect of Tau down-regulation on sensitivity to the drug” value in experiment [1] is “did not result in increased sensitivity”. Moreover, the “Fluorescence uptake in Tau knocked-down cells” value with ZR75.1 cells was “slightly decreased”.
